Read-outs that look alike come from different tables or passages of the source.
Key:
Experiment in all cases: KiNativ assay
Format in all cases: binding
GCK = GCK (Homo sapiens (Human), UniProt Q12851); conditions: H929 live cell
Protocol: (§1) Biochemical IC50s of the compounds of the present disclosure against various kinases were measured in a KiNativ assay. Compounds were screened in duplicate at 10 μM in H929 live cell. IC50 was measured via Mass spectroscopy (MS).

IRAK1 = IRAK1 (Homo sapiens (Human), UniProt P51617); conditions: H929 live cell
Chain of IRAK1 (P51617 whole entry): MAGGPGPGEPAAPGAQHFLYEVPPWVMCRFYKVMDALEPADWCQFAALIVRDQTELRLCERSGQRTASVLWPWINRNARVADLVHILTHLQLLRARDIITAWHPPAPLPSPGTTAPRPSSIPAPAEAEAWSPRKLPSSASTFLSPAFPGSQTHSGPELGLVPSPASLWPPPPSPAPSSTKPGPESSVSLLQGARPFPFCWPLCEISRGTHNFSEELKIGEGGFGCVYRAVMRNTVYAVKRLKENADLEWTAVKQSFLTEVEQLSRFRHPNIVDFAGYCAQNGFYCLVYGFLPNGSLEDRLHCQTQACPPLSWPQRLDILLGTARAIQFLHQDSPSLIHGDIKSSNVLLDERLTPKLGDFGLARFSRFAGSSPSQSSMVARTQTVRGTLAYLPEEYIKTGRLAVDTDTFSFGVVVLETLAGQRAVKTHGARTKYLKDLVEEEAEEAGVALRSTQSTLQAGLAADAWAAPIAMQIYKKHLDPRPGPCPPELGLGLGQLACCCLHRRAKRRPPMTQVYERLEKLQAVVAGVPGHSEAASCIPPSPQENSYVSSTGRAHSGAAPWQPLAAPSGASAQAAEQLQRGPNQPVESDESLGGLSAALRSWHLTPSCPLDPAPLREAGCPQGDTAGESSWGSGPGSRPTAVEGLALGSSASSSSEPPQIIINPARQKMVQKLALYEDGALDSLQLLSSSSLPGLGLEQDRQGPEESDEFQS
Protocol: as §1

ABL, ARG = conditions: H929 live cell
Protocol: as §1

CDK7 = CDK7 (Homo sapiens (Human), UniProt P50613); conditions: H929 live cell
Chain of CDK7 (P50613 whole entry): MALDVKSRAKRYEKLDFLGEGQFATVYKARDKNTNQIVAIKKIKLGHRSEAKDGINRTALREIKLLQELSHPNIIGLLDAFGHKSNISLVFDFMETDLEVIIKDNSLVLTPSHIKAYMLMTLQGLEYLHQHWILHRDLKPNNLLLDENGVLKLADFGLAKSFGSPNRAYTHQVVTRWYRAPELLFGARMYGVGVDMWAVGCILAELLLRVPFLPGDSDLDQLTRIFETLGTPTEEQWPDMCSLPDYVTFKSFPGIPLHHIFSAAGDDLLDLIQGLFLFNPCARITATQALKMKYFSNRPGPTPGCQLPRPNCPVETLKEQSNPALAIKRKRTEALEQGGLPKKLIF
Chain of CDK7 (P51946 whole entry partner): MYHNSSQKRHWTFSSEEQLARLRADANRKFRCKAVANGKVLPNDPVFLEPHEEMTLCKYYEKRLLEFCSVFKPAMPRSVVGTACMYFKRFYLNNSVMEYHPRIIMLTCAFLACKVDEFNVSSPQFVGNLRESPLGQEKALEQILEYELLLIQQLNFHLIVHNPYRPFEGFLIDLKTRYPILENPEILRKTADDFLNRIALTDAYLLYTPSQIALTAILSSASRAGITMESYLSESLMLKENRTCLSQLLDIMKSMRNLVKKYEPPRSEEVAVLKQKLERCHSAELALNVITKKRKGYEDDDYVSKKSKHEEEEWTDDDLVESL
Chain of CDK7 (P51948 whole entry partner): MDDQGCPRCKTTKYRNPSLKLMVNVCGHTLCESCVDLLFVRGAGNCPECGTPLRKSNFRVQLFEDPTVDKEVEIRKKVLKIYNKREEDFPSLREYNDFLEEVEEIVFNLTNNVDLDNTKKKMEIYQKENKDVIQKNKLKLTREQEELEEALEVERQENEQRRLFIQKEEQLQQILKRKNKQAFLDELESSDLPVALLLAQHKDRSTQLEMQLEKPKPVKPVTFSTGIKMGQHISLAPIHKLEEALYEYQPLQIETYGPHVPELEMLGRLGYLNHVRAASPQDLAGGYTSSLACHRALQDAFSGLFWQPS
Protocol: as §1

KHS1 = KHS1 (Homo sapiens (Human), UniProt Q9Y4K4); conditions: H929 live cell
Protocol: as §1

p38a = p38a (Homo sapiens (Human), UniProt Q16539); conditions: H929 live cell, read-out: % inhibition (range)
In short: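 Mass spectrometry read-out of a KiNativ profile gave IC50 values; compounds were screened at 10 μM in duplicate in live H929 cells.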

PRP4 = PRP4 (Homo sapiens (Human), UniProt Q13523); conditions: H929 live cell
Protocol: as §1

PIK3C3 = PIK3C3 (Homo sapiens (Human), UniProt Q8NEB9); conditions: H929 live cell
Protocol: as §1

MSK2 domain1 = MSK2 domain1 (Homo sapiens (Human), UniProt O75676); conditions: H929 live cell
Protocol: as §1

MAP3K4 = MAP3K4 (Homo sapiens (Human), UniProt Q9Y6R4); conditions: H929 live cell
Protocol: as §1

BARK1 = BARK1 (Homo sapiens (Human), UniProt P25098); conditions: H929 live cell
Protocol: as §1

TAO2 = TAO2 (Homo sapiens (Human), UniProt Q9UL54); conditions: H929 live cell
Protocol: as §1

PKCi = PKCi (Homo sapiens (Human), UniProt P41743); conditions: H929 live cell
Protocol: as §1

MAP3K5 = MAP3K5 (Homo sapiens (Human), UniProt Q99683); conditions: H929 live cell
Protocol: as §1

PIK3CG = PIK3CG (Homo sapiens (Human), UniProt P48736); conditions: H929 live cell
Protocol: as §1

RSK1 domain2 = RSK1 domain2 (Homo sapiens (Human), UniProt Q15418); conditions: H929 live cell
Protocol: as §1

p70S6Kb = p70S6Kb (Homo sapiens (Human), UniProt Q9UBS0); conditions: H929 live cell
Protocol: as §1

CSK = CSK (Homo sapiens (Human), UniProt P41240); conditions: H929 live cell
Protocol: as §1

JAK1 domain1 = JAK1 domain1 (Homo sapiens (Human), UniProt P23458); conditions: H929 live cell
Chain of JAK1 domain1 (P23458 whole entry, the tested form may be a part): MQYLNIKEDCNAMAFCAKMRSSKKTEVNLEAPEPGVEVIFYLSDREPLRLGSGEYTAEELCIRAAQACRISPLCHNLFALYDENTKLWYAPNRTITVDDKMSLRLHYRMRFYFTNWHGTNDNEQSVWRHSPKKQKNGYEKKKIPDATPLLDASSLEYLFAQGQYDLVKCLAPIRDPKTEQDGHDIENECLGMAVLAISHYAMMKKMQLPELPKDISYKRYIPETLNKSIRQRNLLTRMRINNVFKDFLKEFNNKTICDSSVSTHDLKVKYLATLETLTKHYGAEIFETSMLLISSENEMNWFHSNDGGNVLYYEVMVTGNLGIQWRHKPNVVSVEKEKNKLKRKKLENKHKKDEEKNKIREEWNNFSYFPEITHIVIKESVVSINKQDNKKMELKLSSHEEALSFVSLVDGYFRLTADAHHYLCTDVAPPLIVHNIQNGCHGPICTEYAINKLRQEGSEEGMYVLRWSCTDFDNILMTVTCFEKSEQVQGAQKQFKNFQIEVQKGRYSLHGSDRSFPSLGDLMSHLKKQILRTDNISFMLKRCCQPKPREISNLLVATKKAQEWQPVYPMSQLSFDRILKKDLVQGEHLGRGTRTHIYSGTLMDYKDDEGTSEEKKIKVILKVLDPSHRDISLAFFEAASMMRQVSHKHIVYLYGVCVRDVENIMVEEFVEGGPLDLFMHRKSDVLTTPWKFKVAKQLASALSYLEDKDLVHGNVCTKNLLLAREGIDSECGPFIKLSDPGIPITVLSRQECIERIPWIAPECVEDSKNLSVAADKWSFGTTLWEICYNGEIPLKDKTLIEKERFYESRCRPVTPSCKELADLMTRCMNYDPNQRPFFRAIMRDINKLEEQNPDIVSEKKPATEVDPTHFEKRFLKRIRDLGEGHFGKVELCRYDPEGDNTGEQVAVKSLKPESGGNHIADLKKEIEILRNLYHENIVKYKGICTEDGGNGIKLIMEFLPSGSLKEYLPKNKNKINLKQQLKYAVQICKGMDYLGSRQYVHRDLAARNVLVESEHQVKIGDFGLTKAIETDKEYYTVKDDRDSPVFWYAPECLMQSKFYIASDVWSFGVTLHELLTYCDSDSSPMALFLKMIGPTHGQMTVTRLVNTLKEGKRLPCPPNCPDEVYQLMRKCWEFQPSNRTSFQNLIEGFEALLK
Protocol: as §1

SRPK2 = SRPK2 (Homo sapiens (Human), UniProt P78362); conditions: H929 live cell
Protocol: as §1

MAP3K1 = MAP3K1 (Homo sapiens (Human), UniProt Q13233); conditions: H929 live cell
Protocol: as §1

MSK1 domain1 = MSK1 domain1 (Homo sapiens (Human), UniProt O75582); conditions: H929 live cell
Protocol: as §1

SRPK1 = SRPK1 (Homo sapiens (Human), UniProt Q96SB4); conditions: H929 live cell
Protocol: as §1

CaMK1d = CaMK1d (Homo sapiens (Human), UniProt Q8IU85); conditions: H929 live cell
Protocol: as §1

MAP2K6 = MAP2K6 (Homo sapiens (Human), UniProt P52564); conditions: H929 live cell
Protocol: as §1

[1] = test system: CaMK2a, CaMK2b, CaMK2d, CaMK2g; conditions: H929 live cell
Protocol: as §1

FYN, SRC, YES = conditions: H929 live cell
Protocol: as §1

PAN3 = PAN3 (Homo sapiens (Human), UniProt Q58A45); conditions: H929 live cell
Chain of PAN3 (Q58A45 whole entry): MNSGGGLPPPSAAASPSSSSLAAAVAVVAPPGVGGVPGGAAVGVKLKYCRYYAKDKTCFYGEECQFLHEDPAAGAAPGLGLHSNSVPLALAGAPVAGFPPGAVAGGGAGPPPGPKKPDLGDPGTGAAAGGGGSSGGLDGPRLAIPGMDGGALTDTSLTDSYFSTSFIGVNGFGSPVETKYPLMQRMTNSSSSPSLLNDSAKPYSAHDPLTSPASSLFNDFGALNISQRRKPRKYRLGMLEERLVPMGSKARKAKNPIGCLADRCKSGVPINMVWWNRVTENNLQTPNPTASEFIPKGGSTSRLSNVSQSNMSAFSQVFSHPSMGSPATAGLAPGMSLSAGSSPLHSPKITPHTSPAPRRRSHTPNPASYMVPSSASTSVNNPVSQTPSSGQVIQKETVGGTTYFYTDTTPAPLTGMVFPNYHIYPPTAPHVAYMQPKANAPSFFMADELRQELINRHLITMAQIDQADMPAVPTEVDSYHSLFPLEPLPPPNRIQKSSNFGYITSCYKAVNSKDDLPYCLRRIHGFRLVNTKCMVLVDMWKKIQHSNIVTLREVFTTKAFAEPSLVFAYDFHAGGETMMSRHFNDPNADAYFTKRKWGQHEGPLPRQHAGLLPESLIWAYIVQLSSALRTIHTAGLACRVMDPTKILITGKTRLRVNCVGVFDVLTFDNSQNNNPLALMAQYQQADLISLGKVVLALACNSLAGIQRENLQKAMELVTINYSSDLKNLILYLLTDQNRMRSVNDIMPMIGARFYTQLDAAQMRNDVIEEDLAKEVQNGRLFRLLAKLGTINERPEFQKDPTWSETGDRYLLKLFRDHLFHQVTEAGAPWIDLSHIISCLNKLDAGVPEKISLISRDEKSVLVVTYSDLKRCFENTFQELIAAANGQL
Protocol: as §1

AKT1 = AKT1 (Homo sapiens (Human), UniProt P31749); conditions: H929 live cell
Protocol: as §1

NuaK1 = NuaK1 (Homo sapiens (Human), UniProt O60285); conditions: H929 live cell
Chain of NuaK1 (O60285 whole entry): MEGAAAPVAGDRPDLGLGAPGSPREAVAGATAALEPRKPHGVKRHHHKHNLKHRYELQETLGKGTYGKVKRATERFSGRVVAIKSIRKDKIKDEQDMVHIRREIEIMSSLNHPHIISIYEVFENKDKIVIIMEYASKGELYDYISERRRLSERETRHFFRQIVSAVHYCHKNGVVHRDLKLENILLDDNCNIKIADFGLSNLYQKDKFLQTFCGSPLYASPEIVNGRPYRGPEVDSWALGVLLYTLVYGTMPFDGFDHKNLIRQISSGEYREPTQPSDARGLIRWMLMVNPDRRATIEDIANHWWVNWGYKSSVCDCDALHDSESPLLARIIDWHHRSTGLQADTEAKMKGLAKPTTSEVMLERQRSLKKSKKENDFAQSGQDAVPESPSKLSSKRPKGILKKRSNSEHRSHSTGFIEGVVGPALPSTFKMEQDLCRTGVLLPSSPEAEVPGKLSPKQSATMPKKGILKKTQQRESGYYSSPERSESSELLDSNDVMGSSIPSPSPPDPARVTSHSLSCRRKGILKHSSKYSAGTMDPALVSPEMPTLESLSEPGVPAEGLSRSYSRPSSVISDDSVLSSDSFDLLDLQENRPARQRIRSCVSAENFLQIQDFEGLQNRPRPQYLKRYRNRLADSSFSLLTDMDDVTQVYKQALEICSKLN
Protocol: as §1

KSR1, KSR2 = conditions: H929 live cell
Protocol: as §1

MARK2, MARK3 = conditions: H929 live cell
Protocol: as §1

NEK3 = NEK3 (Homo sapiens (Human), UniProt P51956); conditions: H929 live cell
Chain of NEK3 (P51956 whole entry): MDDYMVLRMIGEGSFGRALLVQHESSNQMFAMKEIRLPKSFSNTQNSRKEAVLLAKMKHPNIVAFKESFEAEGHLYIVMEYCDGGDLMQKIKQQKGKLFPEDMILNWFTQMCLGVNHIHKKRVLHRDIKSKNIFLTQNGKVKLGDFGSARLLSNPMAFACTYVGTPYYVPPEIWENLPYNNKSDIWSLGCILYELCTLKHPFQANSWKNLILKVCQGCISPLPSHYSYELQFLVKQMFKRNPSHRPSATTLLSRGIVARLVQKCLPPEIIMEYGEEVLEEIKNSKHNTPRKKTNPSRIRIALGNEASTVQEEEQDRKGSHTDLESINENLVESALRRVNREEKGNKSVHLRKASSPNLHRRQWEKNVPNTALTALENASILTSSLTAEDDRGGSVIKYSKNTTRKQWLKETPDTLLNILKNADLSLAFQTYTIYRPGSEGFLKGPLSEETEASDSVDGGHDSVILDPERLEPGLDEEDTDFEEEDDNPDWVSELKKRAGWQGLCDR
Protocol: as §1

**Q.** What does the source list for `CN(C1CC1)S(=O)(=O)c1ccc(-c2cnc(N)c(-c3ccc4c(c3)CCNC4=O)c2)c(F)c1` [Compound I-28, 4-(6-amino-5-(1-oxo-1,2,3,4-tetrahydroisoquinolin-6-yl)pyridin-3-yl)-N-cyclopropyl-3-fluoro-N-methylbenzenesulfonamide]?
**A.** inhibition at 10 µM (GCK; read-out: % inhibition (range)): 75 to 90%; inhibition at 10 µM (GCK; read-out: inhibition (10 μM)): 84.7%; inhibition at 10 µM (IRAK1; read-out: % inhibition (range)): 50 to 75%; inhibition at 10 µM (IRAK1; read-out: inhibition (10 μM)): 67.8%; % inhibition (range) (ABL, ARG; 10 μM): 0.0%; inhibition (10 μM) (ABL, ARG): 13.3%; inhibition at 10 µM (CDK7; read-out: % inhibition (range)): 0%; inhibition at 10 µM (CDK7; read-out: inhibition (10 μM)): 12.3%; inhibition at 10 µM (KHS1; read-out: % inhibition (range)): 75 to 90%; inhibition at 10 µM (KHS1; read-out: inhibition (10 μM)): 75.6%; inhibition at 10 µM (p38a): 0%; inhibition at 10 µM (PRP4; read-out: % inhibition (range)): 0%; inhibition at 10 µM (PRP4; read-out: inhibition (10 μM)): 3.7%; inhibition at 10 µM (PIK3C3; read-out: % inhibition (range)): > 100%; inhibition at 10 µM (PIK3C3; read-out: inhibition (10 μM)): -107%; inhibition at 10 µM (MSK2 domain1; read-out: % inhibition (range)): 0%; inhibition at 10 µM (MSK2 domain1; read-out: inhibition (10 μM)): 2.9%; inhibition at 10 µM (MAP3K4; read-out: % inhibition (range)): 0%; inhibition at 10 µM (MAP3K4; read-out: inhibition (10 μM)): -8.8%; inhibition at 10 µM (BARK1; read-out: % inhibition (range)): 0%; inhibition at 10 µM (BARK1; read-out: inhibition (10 μM)): 22.3%; inhibition at 10 µM (TAO2; read-out: % inhibition (range)): 50 to 75%; inhibition at 10 µM (TAO2; read-out: inhibition (10 μM)): 61.5%; inhibition at 10 µM (PKCi; read-out: % inhibition (range)): 0%; inhibition at 10 µM (PKCi; read-out: inhibition (10 μM)): 12.7%; inhibition at 10 µM (MAP3K5; read-out: % inhibition (range)): 0%; inhibition at 10 µM (MAP3K5; read-out: inhibition (10 μM)): -6.2%; inhibition at 10 µM (PIK3CG; read-out: % inhibition (range)): 0%; inhibition at 10 µM (PIK3CG; read-out: inhibition (10 μM)): 1.7%; inhibition at 10 µM (RSK1 domain2; read-out: % inhibition (range)): 0%; inhibition at 10 µM (RSK1 domain2; read-out: inhibition (10 μM)): 3.8%; inhibition at 10 µM (p70S6Kb; read-out: % inhibition (range)): 0%; inhibition at 10 µM (p70S6Kb; read-out: inhibition (10 μM)): -14.4%; inhibition at 10 µM (CSK; read-out: % inhibition (range)): 0%; inhibition at 10 µM (CSK; read-out: inhibition (10 μM)): 3.7%; inhibition at 10 µM (JAK1 domain1; read-out: % inhibition (range)): 0%; inhibition at 10 µM (JAK1 domain1; read-out: inhibition (10 μM)): -38.6%; inhibition at 10 µM (SRPK2; read-out: % inhibition (range)): 0%; inhibition at 10 µM (SRPK2; read-out: inhibition (10 μM)): 8.5%; inhibition at 10 µM (MAP3K1; read-out: % inhibition (range)): > 90%; inhibition at 10 µM (MAP3K1; read-out: inhibition (10 μM)): 91.1%; inhibition at 10 µM (MSK1 domain1; read-out: % inhibition (range)): 0%; inhibition at 10 µM (MSK1 domain1; read-out: inhibition (10 μM)): 5.4%; inhibition at 10 µM (SRPK1; read-out: % inhibition (range)): 0%; inhibition at 10 µM (SRPK1; read-out: inhibition (10 μM)): 19.5%; inhibition at 10 µM (CaMK1d; read-out: % inhibition (range)): 0%; inhibition at 10 µM (CaMK1d; read-out: inhibition (10 μM)): 15.2%; inhibition at 10 µM (MAP2K6; read-out: % inhibition (range)): 0%; inhibition at 10 µM (MAP2K6; read-out: inhibition (10 μM)): 27.6%; % inhibition (range) ([1]; 10 μM): 0.0%; inhibition (10 μM) [1]: 1.4%; % inhibition (range) (FYN, SRC, YES; 10 μM): 0.0%; inhibition (10 μM) (FYN, SRC, YES): 2.2%; inhibition at 10 µM (PAN3; read-out: % inhibition (range)): 0%; inhibition at 10 µM (PAN3; read-out: inhibition (10 μM)): -45.1%; inhibition at 10 µM (AKT1; read-out: % inhibition (range)): 0%; inhibition at 10 µM (AKT1; read-out: inhibition (10 μM)): 11.1%; inhibition (10 μM) (NuaK1): 66.7%; inhibition at 10 µM (NuaK1; read-out: % inhibition (range)): 50 to 75%; inhibition at 10 µM (NuaK1; read-out: inhibition (10 μM)): 55.6%; % inhibition (range) (KSR1, KSR2; 10 μM): 0.0%; inhibition (10 μM) (KSR1, KSR2): −14.5%; % inhibition (range) (MARK2, MARK3; 10 μM): 0.0%; inhibition (10 μM) (MARK2, MARK3): −7.8%; inhibition at 10 µM (NEK3; read-out: % inhibition (range)): 0%; inhibition at 10 µM (NEK3; read-out: inhibition (10 μM)): -27.2%
